The values below come from US20260297060A1, “COMPOUNDS FOR THE DEGRADATION OF MUTANT BRAF” (C4 THERAPEUTICS, INC., priority 2023, published 2026).

In experiment [1] the target is T1, BRAF V600E (Homo sapiens, UniProt P15056+Q96SW2, V600E).
T1 construct: knock-in of the HiBiT tag to the endogenous BRAF V600E locus; host or cells: A375.10 (A375 clonal line, CRISPR HiBiT knock-in at the endogenous BRAF V600E locus)
The experiment is described as follows: BRAF V600E HiBiT Degradation Assay. The class given is cell-based. To be noted: for Emax: read-out: HiBiT-Degradation A375.10 BRAF 2 hours Emax. A digest of the protocol:
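Endogenous HiBiT knock-in on BRAF V600E in A375 cells (clone A375.10); 11-point half-log series, top 10 μM, 2, 6 or 24 h at 37° C. Lytic HiBiT luminescence, background-subtracted, normalized to DMSO; 4-parameter fit gives DC50, Emax (residual protein) and IP (inflection point).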

Experiment [2] deals with A375-NRAS^Q61K cells. The experiment is described as follows: CTGlo Cell Viability Assay, A375-NRAS^Q61K (A375.11) cells, 96 hours. The class given is cell-based, human. To be noted: A375.11 (A375-NRAS^Q61K) cells; for CTGlo A375.11 96 hours Emax / Emax: lowest % viability achieved. An outline of the steps:
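A375 cells carrying BRAF V600E and NRAS Q61K were seeded at 250 cells/well with a 10-point half-log dose series (max 10 μM final). After 96 h at 37 °C, viability was read as ATP luminescence (CellTiter-Glo), background-subtracted and normalized to DMSO (100%). GI50 from 4-parameter fit; Emax is the lowest % viability.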

Setting [3] is: A375.10 cells, BRAF V600E, 2 hours, inflection point, read-out: HiBiT-Degradation A375.10 BRAF 2 hours IP.
[4] abbreviates: A375.10 cells, BRAF V600E, 2 hours, read-out: HiBiT-Degradation A375.10 BRAF 2 hours DC50.
Setting [5] is: A375.10 cells, BRAF V600E, 2 hours, residual protein remaining.
The mark [6] stands for this setting: A375.10 cells, BRAF V600E, 6 hours, inflection point, read-out: HiBiT-Degradation A375.10 BRAF 6 hours IP.
Setting [7] is: A375.10 cells, BRAF V600E, 6 hours, read-out: HiBiT-Degradation A375.10 BRAF 6 hours DC50.
Where [8] appears, read: A375.10 cells, BRAF V600E, 6 hours, residual protein remaining.
Setting [9] is: A375.10 cells, HiBiT, BRAF V600E, 24 hours.
The mark [10] stands for this setting: A375.10 cells, HiBiT, BRAF V600E, 24 hours, read-out: HiBiT-Degradation A375.10 BRAF 24 hours DC50.
Where [11] appears, read: A375.10 cells, HiBiT, BRAF V600E, 24 hours, read-out: HiBiT-Degradation A375.10 BRAF 24 hours IP.

Like-named read-outs stand apart in the source and are kept apart here.

T1 sequence (P15056 whole entry V600E): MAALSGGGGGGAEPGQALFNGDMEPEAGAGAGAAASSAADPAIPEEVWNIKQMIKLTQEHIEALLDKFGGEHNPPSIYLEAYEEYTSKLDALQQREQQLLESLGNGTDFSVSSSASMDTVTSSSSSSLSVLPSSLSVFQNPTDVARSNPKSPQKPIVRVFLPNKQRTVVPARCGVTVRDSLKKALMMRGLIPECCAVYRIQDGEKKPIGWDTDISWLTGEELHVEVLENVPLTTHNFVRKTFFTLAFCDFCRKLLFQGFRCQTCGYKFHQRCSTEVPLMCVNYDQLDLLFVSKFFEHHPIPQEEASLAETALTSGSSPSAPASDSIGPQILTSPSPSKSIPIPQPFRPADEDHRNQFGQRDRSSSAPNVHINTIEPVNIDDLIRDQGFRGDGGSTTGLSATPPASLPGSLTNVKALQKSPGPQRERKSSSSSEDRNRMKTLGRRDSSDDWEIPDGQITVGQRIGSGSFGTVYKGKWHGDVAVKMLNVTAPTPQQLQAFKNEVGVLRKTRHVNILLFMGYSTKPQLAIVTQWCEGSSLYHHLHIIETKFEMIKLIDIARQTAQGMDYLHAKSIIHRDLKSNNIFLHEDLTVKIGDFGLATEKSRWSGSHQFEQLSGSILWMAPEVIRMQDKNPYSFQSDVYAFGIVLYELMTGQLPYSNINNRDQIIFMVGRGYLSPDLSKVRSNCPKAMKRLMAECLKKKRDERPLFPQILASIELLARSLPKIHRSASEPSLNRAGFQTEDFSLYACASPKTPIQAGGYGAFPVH
T1 sequence (Q96SW2 whole entry): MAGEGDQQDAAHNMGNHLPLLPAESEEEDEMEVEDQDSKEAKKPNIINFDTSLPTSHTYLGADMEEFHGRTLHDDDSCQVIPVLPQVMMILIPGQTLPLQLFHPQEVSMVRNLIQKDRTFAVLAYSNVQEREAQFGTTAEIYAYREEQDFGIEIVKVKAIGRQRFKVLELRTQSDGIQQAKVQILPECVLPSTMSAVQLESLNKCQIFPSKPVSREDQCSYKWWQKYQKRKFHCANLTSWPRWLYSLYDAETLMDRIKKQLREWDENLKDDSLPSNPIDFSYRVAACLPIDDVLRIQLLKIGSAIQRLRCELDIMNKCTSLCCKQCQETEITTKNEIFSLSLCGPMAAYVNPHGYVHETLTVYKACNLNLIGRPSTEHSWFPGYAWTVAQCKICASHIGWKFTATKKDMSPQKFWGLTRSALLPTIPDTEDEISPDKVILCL
T1 sequence (Q16531 whole entry partner): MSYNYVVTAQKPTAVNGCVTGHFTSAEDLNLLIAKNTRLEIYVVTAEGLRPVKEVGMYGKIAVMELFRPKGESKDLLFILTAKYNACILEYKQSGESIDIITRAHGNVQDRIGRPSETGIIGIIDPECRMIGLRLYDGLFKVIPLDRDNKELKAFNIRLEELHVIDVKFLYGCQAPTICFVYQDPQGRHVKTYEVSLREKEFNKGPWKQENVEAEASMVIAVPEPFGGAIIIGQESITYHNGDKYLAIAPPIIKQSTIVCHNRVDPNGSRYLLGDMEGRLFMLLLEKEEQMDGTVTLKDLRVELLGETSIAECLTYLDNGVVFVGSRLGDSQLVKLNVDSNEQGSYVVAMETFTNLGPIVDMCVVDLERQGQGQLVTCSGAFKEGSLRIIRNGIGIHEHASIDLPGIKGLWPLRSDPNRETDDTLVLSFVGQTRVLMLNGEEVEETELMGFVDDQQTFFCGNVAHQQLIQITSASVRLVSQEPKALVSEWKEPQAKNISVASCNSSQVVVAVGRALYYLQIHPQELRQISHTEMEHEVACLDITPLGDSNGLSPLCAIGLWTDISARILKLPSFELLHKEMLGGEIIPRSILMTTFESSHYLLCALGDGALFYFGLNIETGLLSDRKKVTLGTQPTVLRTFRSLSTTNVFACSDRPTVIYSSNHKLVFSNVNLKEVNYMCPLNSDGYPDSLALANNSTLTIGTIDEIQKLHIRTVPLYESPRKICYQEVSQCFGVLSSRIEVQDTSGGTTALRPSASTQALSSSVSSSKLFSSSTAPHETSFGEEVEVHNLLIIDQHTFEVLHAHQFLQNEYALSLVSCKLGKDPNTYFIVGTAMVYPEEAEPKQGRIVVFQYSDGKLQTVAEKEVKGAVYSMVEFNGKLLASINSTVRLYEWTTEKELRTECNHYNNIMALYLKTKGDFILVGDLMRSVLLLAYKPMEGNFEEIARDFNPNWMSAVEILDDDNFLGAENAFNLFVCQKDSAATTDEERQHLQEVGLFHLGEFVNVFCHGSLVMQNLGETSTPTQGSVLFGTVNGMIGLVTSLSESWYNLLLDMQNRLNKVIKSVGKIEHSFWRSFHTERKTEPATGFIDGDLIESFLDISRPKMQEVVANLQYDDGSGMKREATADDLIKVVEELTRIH

Broadly, the GI50 is the concentration at which growth is held to half of that of the control. Read a high GI50 as less potent growth inhibition. As for `CO[C@@H]1CCN(S(=O)(=O)Nc2ccc(F)c(Oc3ccc4ncn(C5CC6(CCN(C7CCC(c8cc9c(cc8F)c(N8CCC(=O)NC8=O)nn9C)CC7)CC6)C5)c(=O)c4c3)c2C#N)C1` (single isomer, unassigned) [Compound 102], the DC50 in experiment [1] (setting [3]), in experiment [1] (setting [4]), in experiment [1] (setting [6]), in experiment [1] (setting [7]), in experiment [1] (setting [10]) and in experiment [1] (setting [11]) was less than 1000 nM each time. Also, the “HiBiT-Degradation A375.10 BRAF 2 hours Emax” value in experiment [1] (setting [5]) is given as “*** (<=50%)”. The “HiBiT-Degradation A375.10 BRAF 6 hours Emax” value in experiment [1] (setting [8]) is on record as “*** (<=50%)”. Also, the “HiBiT-Degradation A375.10 BRAF 24 hours Emax” value in experiment [1] (setting [9]) was “*** (<=50%)”. In experiment [2], this compound came in with a GI50 of less than 1000 nM. Further, the “CTGlo A375.11 96 hours Emax” value in experiment [2] is “*** (<=50%)”.

Regarding `CO[C@H]1CCN(S(=O)(=O)Nc2ccc(F)c(Oc3ccc4ncn(C5CC6(CCN(C7CCC(c8cc9c(cc8F)c(N8CCC(=O)NC8=O)nn9C)CC7)CC6)C5)c(=O)c4c3)c2C#N)C1` (single isomer, unassigned) [Compound 104], the DC50 in experiment [1] (setting [3]), in experiment [1] (setting [4]), in experiment [1] (setting [6]), in experiment [1] (setting [7]), in experiment [1] (setting [10]) and in experiment [1] (setting [11]) was less than 1000 nM each time. Besides, the “HiBiT-Degradation A375.10 BRAF 2 hours Emax” value in experiment [1] (setting [5]) is “*** (<=50%)”. Besides, the “HiBiT-Degradation A375.10 BRAF 6 hours Emax” value in experiment [1] (setting [8]) is reported as “*** (<=50%)”. Besides, the “HiBiT-Degradation A375.10 BRAF 24 hours Emax” value in experiment [1] (setting [9]) is “*** (<=50%)”. In experiment [2], this compound had a GI50 of 1000 to 10000 nM. Also, the “CTGlo A375.11 96 hours Emax” value in experiment [2] was “** (<90% and >50%)”.

Regarding `CCN(C)S(=O)(=O)Nc1ccc(F)c(Oc2ccc3ncc(OCC4CCN(C5CCC(c6ccc(NC7CCC(=O)NC7=O)cc6F)CC5)CC4)nc3c2)c1C#N` (single isomer, unassigned) [Compound 116, 7-[2-cyano-3-[[ethyl(methyl)sulfamoyl]amino]-6-fluoro-phenoxy]-2-[[1-[4-[4-[(2,6-dioxo-3-piperidyl)amino]-2-fluoro-phenyl]cyclohexyl]-4-piperidyl]methoxy]quinoxaline], the DC50 in experiment [1] (setting [3]) was less than 1000 nM; in experiment [1] (setting [4]), 1000 to 10000 nM. For the same compound, the Emax in experiment [1] (setting [5]) was 50 to 90%; in experiment [2] (Homo sapiens, 96 h) it was 50 to 90%. For the same compound, the 50% growth inhibitory concentration (GI50) in experiment [2] is more than 10000 nM.

`CCN(C)S(=O)(=O)Nc1ccc(F)c(Oc2ccc3ncc(OCC4CCN(C5CCC(c6ccc(NC7CCC(=O)NC7=O)cc6F)CC5)CC4)nc3c2)c1C#N` (single isomer, unassigned) [Compound 117, 7-[2-cyano-3-[[ethyl(methyl)sulfamoyl]amino]-6-fluoro-phenoxy]-2-[[1-[4-[4-[(2,6-dioxo-3-piperidyl)amino]-2-fluoro-phenyl]cyclohexyl]-4-piperidyl]methoxy]quinoxaline]: the DC50 in experiment [1] (setting [3]) and in experiment [1] (setting [4]) was less than 1000 nM each time. For the same compound, in experiment [1] (setting [5]), the “HiBiT-Degradation A375.10 BRAF 2 hours Emax” value is reported as “*** (<=50%)”. In experiment [2], this compound had a GI50 of less than 1000 nM. In addition, the “CTGlo A375.11 96 hours Emax” value in experiment [2] was “** (<90% and >50%)”.

Regarding `CCN(C)S(=O)(=O)Nc1ccc(F)c(Oc2ccc3ncc(OCC4CCN(C5CCC(c6cc7c(cc6F)c(N6CCC(=O)NC6=O)nn7C)CC5)CC4)nc3c2)c1C#N` (single isomer, unassigned) [Compound 119, 7-[2-cyano-3-[[ethyl(methyl)sulfamoyl]amino]-6-fluoro-phenoxy]-2-[[1-[4-[3-(2,4-dioxohexahydropyrimidin-1-yl)-5-fluoro-1-methyl-indazol-6-yl]cyclohexyl]-4-piperidyl]methoxy]quinoxaline], the “HiBiT-Degradation A375.10 BRAF 2 hours Emax” value in experiment [1] was “** (<90% and >50%)”. Besides, in experiment [1] (setting [3]), the DC50 was less than 1000 nM. The DC50 in experiment [1] (setting [4]) is less than 1000 nM. In experiment [2], the GI50 lay within 1000 to 10000 nM; the “CTGlo A375.11 96 hours Emax” value is “** (<90% and >50%)”.

In the case of `Cn1nc(N2CCC(=O)NC2=O)c2cc(F)c(C3CCC(N4CCC5(CC4)CC(n4cnc6ccc(Oc7c(F)ccc(NS(=O)(=O)N8CC[C@@H](F)C8)c7C#N)cc6c4=O)C5)CC3)cc21` (single isomer, unassigned) [Compound 123], the DC50 in experiment [1] (setting [3]), in experiment [1] (setting [4]), in experiment [1] (setting [6]), in experiment [1] (setting [7]), in experiment [1] (setting [10]) and in experiment [1] (setting [11]) was less than 1000 nM throughout. In addition, the “HiBiT-Degradation A375.10 BRAF 2 hours Emax” value in experiment [1] (setting [5]) is “*** (<=50%)”. Also, the “HiBiT-Degradation A375.10 BRAF 6 hours Emax” value in experiment [1] (setting [8]) was “*** (<=50%)”. Besides, the “HiBiT-Degradation A375.10 BRAF 24 hours Emax” value in experiment [1] (setting [9]) is reported as “*** (<=50%)”. For the same compound, the GI50 in experiment [2] is less than 1000 nM. The “CTGlo A375.11 96 hours Emax” value in experiment [2] is reported as “*** (<=50%)”.

For the compound `CCN(C)S(=O)(=O)Nc1ccc(F)c(Oc2ccc3ncc(OC4CCN(C5CCC(c6cc7c(cc6F)c(N6CCC(=O)NC6=O)nn7C)CC5)CC4)nc3c2)c1C#N` (single isomer, unassigned) [Compound 124, 7-[2-cyano-3-[[ethyl(methyl)sulfamoyl]amino]-6-fluoro-phenoxy]-2-[[1-[4-[3-(2,4-dioxohexahydropyrimidin-1-yl)-5-fluoro-1-methyl-indazol-6-yl]cyclohexyl]-4-piperidyl]oxy]quinoxaline], the DC50 in experiment [1] (setting [3]) was less than 1000 nM; in experiment [1] (setting [4]), 1000 to 10000 nM. The Emax is less than 50% in experiment [1] (setting [5]) and 50 to 90% in experiment [2] (Homo sapiens, 96 h). The same compound came in with a GI50 in experiment [2] (Homo sapiens, 96 h) of more than 10000 nM.

Take `CCN(C)S(=O)(=O)Nc1ccc(F)c(Oc2ccc3ncc(CCC4CCN(C5CCC(c6cc7c(cc6F)c(N6CCC(=O)NC6=O)nn7C)CC5)CC4)nc3c2)c1C#N` (single isomer, unassigned) [Compound 128, 7-[2-cyano-3-[[ethyl(methyl)sulfamoyl]amino]-6-fluoro-phenoxy]-2-[2-[1-[4-[3-(2,4-dioxohexahydropyrimidin-1-yl)-5-fluoro-1-methyl-indazol-6-yl]cyclohexyl]-4-piperidyl]ethyl]quinoxaline]: the DC50 in experiment [1] (setting [3]) is less than 1000 nM; in experiment [1] (setting [4]), more than 10000 nM. Further, the Emax in experiment [1] (setting [5]) fell in the range of 50 to 90%; in experiment [2] (Homo sapiens, 96 h), 50 to 90%. This compound came in with a GI50 in experiment [2] of more than 10000 nM.

Take `CCN(C)S(=O)(=O)Nc1ccc(F)c(Oc2ccc3ncc(CCC4CCN(C5CCC(c6cc7c(cc6F)c(N6CCC(=O)NC6=O)nn7C)CC5)CC4)nc3c2)c1C#N` (single isomer, unassigned) [Compound 129, 7-[2-cyano-3-[[ethyl(methyl)sulfamoyl]amino]-6-fluoro-phenoxy]-2-[2-[1-[4-[3-(2,4-dioxohexahydropyrimidin-1-yl)-5-fluoro-1-methyl-indazol-6-yl]cyclohexyl]-4-piperidyl]ethyl]quinoxaline]: the DC50 in experiment [1] (setting [3]) and in experiment [1] (setting [4]) was less than 1000 nM in each case. Further, the “HiBiT-Degradation A375.10 BRAF 2 hours Emax” value in experiment [1] (setting [5]) was “** (<90% and >50%)”. The compound further registered a GI50 in experiment [2] of 1000 to 10000 nM. In addition, the “CTGlo A375.11 96 hours Emax” value in experiment [2] was “** (<90% and >50%)”.

In the case of `CCN(C)S(=O)(=O)Nc1ccc(F)c(Oc2ccc3ncc(CCC4CCN(C5CCC(c6ccc(NC7CCC(=O)NC7=O)cc6F)CC5)CC4)nc3c2)c1C#N` (single isomer, unassigned) [Compound 131, 7-[2-cyano-3-[[ethyl(methyl)sulfamoyl]amino]-6-fluoro-phenoxy]-2-[2-[1-[4-[4-[(2,6-dioxo-3-piperidyl)amino]-2-fluoro-phenyl]cyclohexyl]-4-piperidyl]ethyl]quinoxaline], the DC50 in experiment [1] (setting [3]) is less than 1000 nM; in experiment [1] (setting [4]) it was more than 10000 nM. The Emax was 50 to 90% in experiment [1] (setting [5]) and 50 to 90% in experiment [2] (Homo sapiens, 96 h). The same compound returned a GI50 in experiment [2] of more than 10000 nM.

Turning to `CCN(C)S(=O)(=O)Nc1ccc(F)c(Oc2ccc3ncc(CCC4CCN(C5CCC(c6ccc(NC7CCC(=O)NC7=O)cc6F)CC5)CC4)nc3c2)c1C#N` (single isomer, unassigned) [Compound 132, 7-[2-cyano-3-[[ethyl(methyl)sulfamoyl]amino]-6-fluoro-phenoxy]-2-[2-[1-[4-[4-[(2,6-dioxo-3-piperidyl)amino]-2-fluoro-phenyl]cyclohexyl]-4-piperidyl]ethyl]quinoxaline], the DC50 in experiment [1] (setting [3]) and in experiment [1] (setting [4]) was less than 1000 nM each time. For the same compound, the “HiBiT-Degradation A375.10 BRAF 2 hours Emax” value in experiment [1] (setting [5]) was “*** (<=50%)”. The GI50 in experiment [2] was less than 1000 nM. Also, the “CTGlo A375.11 96 hours Emax” value in experiment [2] is “** (<90% and >50%)”.

`N#Cc1c(NS(=O)(=O)C2CCCC2)ccc(F)c1Oc1ccc2ncn([C@H]3COC4(CCN(C5CCC(c6ccc(NC7CCC(=O)NC7=O)cc6F)CC5)CC4)C3)c(=O)c2c1` (single isomer, unassigned) [Compound 136]: the DC50 in experiment [1] (setting [3]) and in experiment [1] (setting [4]) was less than 1000 nM in each case. In addition, the Emax in experiment [1] (setting [5]) was less than 50%; in experiment [2] (Homo sapiens, 96 h) it was less than 50%. The same compound returned a GI50 in experiment [2] (Homo sapiens, 96 h) of less than 1000 nM.
